Measured values reported in patent US20230055657A1, “COMBINATION TREATMENT OF LIVER DISEASES USING INTEGRIN INHIBITORS” (NOVARTIS AG, priority 2019, published 2023).
“Also recorded” adds a separate entry of the source.

Experiments:
CDAHFD NASH mouse model = CDAHFD NASH mouse model (prophylactic, therapeutic and 10-week studies); assay type: in vivo
Protocol: CDAHFD injury is a rodent model of NASH displaying liver fat accumulation, inflammation, and fibrosis (Matsumoto 2013). Three types of studies were performed: 1) prophylactic, Compound 1 in an abbreviated 3-week CDAHFD model; 2) therapeutic, Compound 1 for 6 weeks in the 11- to 12-week CDAHFD model; and 3) Compound 1 for 4 weeks in a 10-week CDAHFD model.
Compound 1 was tested therapeutically in 11- to 12-week CDAHFD injury studies at medium, high and highest doses across 3 independent studies.
Although pan-αv inhibition with CWHM12 reduced pSMAD and OHP levels, selective αvβ1 inhibition was sufficient for antifibrotic activity.

[1] = system: human cirrhotic NASH precision cut liver slices; assay: Profibrotic gene expression and fibrosis biomarkers in precision cut liver slices; assay type: cell-based
Protocol: The ability of Compound 1 to inhibit the expression of profibrotic genes and decrease biomarkers of fibrosis was measured in precision cut liver slices generated using cirrhotic liver tissues from NASH patient explants and from rodent models of liver fibrosis and NASH.
Data are mean +/−standard deviation from the 5 cirrhotic NASH patients. DMSO was used as the solvent and utilized at a constant concentration (0.1%) across the different groups. […] was used as a positive control.

healthy volunteers = assay: First-in-human study of safety, tolerability, PK and PD; assay type: in vivo; settings: single and multiple ascending dose, thus far
Source text: Part A (Single Ascending Dose Study) Part A of the study was a first-in-human, randomized, double-blind, placebo-controlled, parallel-group, single ascending dose study of the safety, tolerability, and PK of Compound 1 in a maximum of 50 healthy male and female (non-childbearing potential) participants. Forty participants will be enrolled in up to 5 sequential cohorts.
Part B (Multiple Ascending Dose Study) Part B of the study is on-going and was initiated after the first 2 cohorts in Part A of the study had been completed. The doses in Part B were determined from Part A of the study and were not higher than the highest dose that was administered in Part A of the study.
Part B of the study is a randomized, double-blind, placebo-controlled, parallel-group, multiple ascending dose study of the PK, PD, safety, and tolerability of Compound 1 administered for 7 days in a maximum of 40 healthy male and female (non-childbearing potential) participants.

[2] = system: murine CCl4 model of liver fibrosis; assay: 3-week murine CCl4 model of liver fibrosis; assay type: in vivo, mouse
Protocol: Antifibrotic activity of Compound 1 was established in an abbreviated, 3-week, murine CCl4 model of liver fibrosis. CCl4 is a hepatotoxin that when injected into mice results in liver fibrosis (Constandinou 2003). Compound 1 was dosed during the final week of injury.

[3] = therapeutic, 11- to 12-week, high and highest doses

Structure (SMILES)	reduction of OHP concentrations (CDAHFD NASH mouse model; 10-week CDAHFD study) [%]	reduction of pSMAD3 levels (CDAHFD NASH mouse model; 10-week CDAHFD study) [%]	TIMP1 gene expression (in words) ([1]; 5 cirrhotic NASH patient explants, after two days of treatment)	COL1A1 gene expression (in words) ([1]; fibrotic liver tissue from 5 patients with NASH)	reduction of level of FBN-C in culture media ([1]; significant) [%]	tolerability (healthy volunteers)	antifibrotic activity (CDAHFD NASH mouse model; NASH (CDAHFD))	expression of Ehhadh (CDAHFD NASH mouse model; prophylactic, 3-week, high dose, both studies)	gene expression of collagens (CDAHFD NASH mouse model; prophylactic, 3-week, high dose, one of the studies)	collagen area (histological analysis) (CDAHFD NASH mouse model; therapeutic, 11- to 12-week)	composite fibrosis score (second harmonic generation imaging): quantity and quality of collagen fibers (CDAHFD NASH mouse model; therapeutic, 11- to 12-week)	gene expression of Acox1 and Ehhadh (CDAHFD NASH mouse model; therapeutic, 11- to 12-week)	collagen gene expression (Col1α1 and Col3α1) (CDAHFD NASH mouse model; [3])	gene expression of profibrotic markers Ctgf, Mmp-2 and Timp1 (CDAHFD NASH mouse model; [3])	hepatic Col1α1, Col1α1, and Col3α1 expression ([2]; all doses)	levels of pSMAD3/SMAD3 in the liver ([2]; all doses, dosed during final week of injury)	antifibrotic activity ([2]; liver fibrosis (CCl4))
CC(C)(C)c1cc(Br)cc([C@H](CC(=O)O)NC(=O)CNC(=O)c2cc(O)cc(NC3=NCC(O)CN3)c2)c1 (stereo partly drawn) [CWHM12, (3S)-N-[3-hydroxy-5-[(1,4,5,6-tetrahydro-5-hydroxy-2-pyrimidinyl)amino]benzoyl]glycyl-3-[3-bromo-5-(1,1-dimethylethyl)phenyl]β-alanine, reference compound]	30	61															
CC1(C(=O)N[C@@H](CCCCCCCc2ccc3c(n2)NCCC3)C(=O)O)CCOCC1 [Compound 1, (S)-2-(4-methyltetrahydro-2H-pyran-4-carboxamido)-9-(5,6,7,8-tetrahydro-1,8-naphthyridin-2-yl)nonanoic acid]			reduced; also recorded: decreased expression; also recorded: reduces expression	decreased expression; also recorded: reduces expression	26	well tolerated	effective antifibrotic agent; also recorded: potent and dose-dependent antifibrotic activity	significantly elevated	Significantly reduced	significant reduction	significant reduction	significantly increased	significantly reduced	significantly reduced	significant reduction; also recorded: significantly reduced	significantly reduced	potent and dose-dependent antifibrotic activity
